Patent US20130165428A1, “XANTHINE DERIVATIVES, THE PREPARATION THEREOF AND THEIR USE AS PHARMACEUTICAL COMPOSITIONS” (Boehringer Ingelheim Pharma GmbH & Co. KG, priority 2001, published 2013)
pIC50: −log10 of the molar value.

target: T1, DPP-IV (Homo sapiens, UniProt P27487); experiment: DPP-IV assay with extract of Caco-2 cells as DPP IV source; type: biochemical; settings: extract of human colon carcinoma cell line Caco-2 as DPP IV source, substrate AFC 100 μM, 60 minutes, ambient temperature; read-out: DPP IV inhibition IC50
T1 construct: an extract of the human colon carcinoma cell line Caco-2 is used as the DPP IV source; host or cells: Caco-2 (differentiated to induce DPP-IV expression), Nonidet-P40 solubilised extract
T1 sequence (P27487 whole entry): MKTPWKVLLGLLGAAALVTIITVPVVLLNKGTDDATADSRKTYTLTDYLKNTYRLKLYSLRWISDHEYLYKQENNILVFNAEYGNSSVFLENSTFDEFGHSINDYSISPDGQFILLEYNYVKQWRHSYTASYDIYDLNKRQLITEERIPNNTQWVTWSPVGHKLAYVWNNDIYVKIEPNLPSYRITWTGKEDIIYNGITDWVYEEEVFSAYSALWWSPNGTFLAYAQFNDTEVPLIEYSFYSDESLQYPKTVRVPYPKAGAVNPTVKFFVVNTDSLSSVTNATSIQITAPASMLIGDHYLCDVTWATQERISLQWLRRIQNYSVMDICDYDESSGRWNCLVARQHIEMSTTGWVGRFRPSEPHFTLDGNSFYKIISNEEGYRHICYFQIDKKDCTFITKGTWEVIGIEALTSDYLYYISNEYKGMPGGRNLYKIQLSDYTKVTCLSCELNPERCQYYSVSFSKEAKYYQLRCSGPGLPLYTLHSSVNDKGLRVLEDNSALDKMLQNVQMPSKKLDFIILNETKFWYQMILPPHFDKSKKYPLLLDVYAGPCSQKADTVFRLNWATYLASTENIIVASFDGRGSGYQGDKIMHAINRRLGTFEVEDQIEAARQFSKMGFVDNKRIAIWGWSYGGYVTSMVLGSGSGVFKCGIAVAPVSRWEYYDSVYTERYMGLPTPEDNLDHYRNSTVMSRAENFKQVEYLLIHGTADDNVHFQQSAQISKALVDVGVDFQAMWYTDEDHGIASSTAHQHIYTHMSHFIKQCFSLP
Method: This cell line was obtained from the American Type Culture Collection (ATCC HTB 37). […] The cell extract was obtained from cells solubilised in a buffer (10 mM Tris HCl, 0.15 M NaCl, 0.04 t.i.u. aprotinin, 0.5% Nonidet-P40, pH 8.0) by centrifugation at 35,000 g for 30 minutes at 4° C. (to remove cell debris).
The DPP-IV assay was carried out as follows:
50 μl of substrate solution (AFC; AFC is amido-4-trifluoromethylcoumarin), final concentration 100 μM, were placed in black microtitre plates. 20 μl of assay buffer (final concentrations 50 mM Tris HCl pH 7.8, 50 mM NaCl, 1% DMSO) was pipetted in. The reaction was started by the addition of 30 μl of solubilised Caco-2 protein (final concentration 0.14 μg of protein per well). The test substances under investigation were typically added prediluted to 20 μl, while the volume of assay buffer was then reduced accordingly. The reaction was carried out at ambient temperature, the incubation period was 60 minutes. […] Dummy values (corresponding to 0% activity) were obtained in mixtures with no Caco-2 protein (volume replaced by assay buffer), control values (corresponding to 100% activity) were obtained in mixtures without any added substance.

With `CC(C)=CCn1c(N2CCC[C@H](N)C2)nc2c1c(=O)n(CCc1cccc(O)c1)c(=O)n2C` [2(22), 1-[2-(3-hydroxy-phenyl)-ethyl]-3-methyl-7-(3-methyl-2-buten-1-yl)-8-((S)-3-amino-piperidin-1-yl)-xanthine] as the compound, how does the pIC50 read?
Its pIC50 is 7.18.

With `CC(C)=CCn1c(N2CCCC(N)C2)nc2c1c(=O)n(CCO)c(=O)n2C` (stereo not shown) [1(27), 1-(2-hydroxyethyl)-3-methyl-7-(3-methyl-2-buten-1-yl)-8-(3-amino-piperidin-1-yl)-xanthine] as the compound, how does the pIC50 read?
Its pIC50 is 6.90.

With `CC(C)=CCn1c(N2CCCC(N)C2)nc2c1c(=O)[nH]c(=O)n2C` (stereo not shown) [1(15), 3-methyl-7-(3-methyl-2-buten-1-yl)-8-(3-amino-piperidin-1-yl)-xanthine] as the compound, how does the pIC50 read?
The pIC50 was 6.20.

With `CC(C)=CCn1c(N2CCCC(N)C2)nc2c1c(=O)n(Cc1ccccn1)c(=O)n2C` (stereo not shown) [2(113), 1-[(pyridin-2-yl)methyl]-3-methyl-7-(3-methyl-2-buten-1-yl)-8-(3-amino-piperidin-1-yl)-xanthine] as the compound, how does the pIC50 read?
The pIC50 was 7.70.

With `CC(C)=CCn1c(N2CCCC(N)C2)nc2c1c(=O)n(CC(=O)c1ccccc1N)c(=O)n2C` (stereo not shown) [2(136), 1-[2-(2-amino-phenyl)-2-oxo-ethyl]-3-methyl-7-(3-methyl-2-buten-1-yl)-8-(3-amino-piperidin-1-yl)-xanthine] as the compound, how does the pIC50 read?
The pIC50 was 8.52.

With `Cn1c(=O)c2c(nc(N3CCCC(N)C3)n2Cc2ccccc2)n(CCc2ccccc2)c1=O` (stereo not shown) [1(70), 1-methyl-3-(2-phenyl-ethyl)-7-benzyl-8-(3-amino-piperidin-1-yl)-xanthine] as the compound, how does the pIC50 read?
The pIC50 was 7.49.

With `CCn1c(=O)n(C)c(=O)c2c1nc(N1CCCC(N)C1)n2Cc1ccccc1` (stereo not shown) [1(34), 1-methyl-3-ethyl-7-benzyl-8-(3-amino-piperidin-1-yl)-xanthine] as the compound, how does the pIC50 read?
Its pIC50 is 6.69.

With `CC(C)=CCn1c(N2CCCC(N)C2)nc2c1c(=O)n(C)c(=O)n2CCc1ccc(F)cc1` (stereo not shown) [2(77), 1-methyl-3-[2-(4-fluoro-phenyl)-ethyl]-7-(3-methyl-2-buten-1-yl)-8-(3-amino-piperidin-1-yl)-xanthine] as the compound, how does the pIC50 read?
Its pIC50 is 7.66.

With `CC(C)=CCn1c(N2CCCC(N)C2)nc2c1c(=O)n(CCN(C)C)c(=O)n2C` (stereo not shown) [1(30), 1-[2-(dimethylamino)ethyl]-3-methyl-7-(3-methyl-2-buten-1-yl)-8-(3-amino-piperidin-1-yl)-xanthine] as the compound, how does the pIC50 read?
Its pIC50 is 5.69.

With `CC(C)=CCn1c(N2CCCC(N)C2)nc2c1c(=O)n(CCc1cccc(C)c1)c(=O)n2C` (stereo not shown) [1(55), 1-[2-(3-methyl-phenyl)-ethyl]-3-methyl-7-(3-methyl-2-buten-1-yl)-8-(3-amino-piperidin-1-yl)-xanthine] as the compound, how does the pIC50 read?
The pIC50 was 6.85.

With `Cn1c(=O)c2c(nc(N3CCCC(N)C3)n2Cc2ccccc2C#N)n(C)c1=O` (stereo not shown) [1(121), 1,3-dimethyl-7-(2-cyano-benzyl)-8-(3-amino-piperidin-1-yl)-xanthine] as the compound, how does the pIC50 read?
Its pIC50 is 8.00.

With `CC(C)=CCn1c(N[C@@H]2CCCC[C@@H]2N)nc2c1c(=O)n(C)c(=O)n2C` (relative stereo) [1(6), 1,3-dimethyl-7-(3-methyl-2-buten-1-yl)-8-[(cis-2-amino-cyclohexyl)amino]-xanthine] as the compound, how does the pIC50 read?
Its pIC50 is 6.64.

With `CCn1c(=O)c2c(nc(N3CCCC(N)C3)n2CC=C(C)C)n(C)c1=O` (stereo not shown) [1(16), 1-ethyl-3-methyl-7-(3-methyl-2-buten-1-yl)-8-(3-amino-piperidin-1-yl)-xanthine] as the compound, how does the pIC50 read?
The pIC50 was 7.11.

With `CC(C)=CCn1c(N2CCCC(N)C2)nc2c1c(=O)n(Cc1cccc3ccccc13)c(=O)n2C` (stereo not shown) [2(127), 1-[(1-naphthyl)methyl]-3-methyl-7-(3-methyl-2-buten-1-yl)-8-(3-amino-piperidin-1-yl)-xanthine] as the compound, how does the pIC50 read?
Its pIC50 is 7.66.

With `COCCn1c(=O)c2c(nc(N3CCCC(N)C3)n2CC=C(C)C)n(C)c1=O` (stereo not shown) [1(28), 1-(2-methoxyethyl)-3-methyl-7-(3-methyl-2-buten-1-yl)-8-(3-amino-piperidin-1-yl)-xanthine] as the compound, how does the pIC50 read?
The pIC50 was 6.78.

With `Cc1cccc(-n2c(N3CCCC(N)C3)nc3c2c(=O)n(C)c(=O)n3C)c1` (stereo not shown) [1(62), 1,3-dimethyl-7-(3-methyl-phenyl)-8-(3-amino-piperidin-1-yl)-xanthine] as the compound, how does the pIC50 read?
The pIC50 was 6.78.

With `C=CCn1c(=O)c2c(nc(N3CCCC(N)C3)n2CC=C(C)C)n(C)c1=O` (stereo not shown) [1(21), 1-(2-propen-1-yl)-3-methyl-7-(3-methyl-2-buten-1-yl)-8-(3-amino-piperidin-1-yl)-xanthine] as the compound, how does the pIC50 read?
The pIC50 was 6.91.

With `CC(C)=CCn1c(N2CCCNCC2)nc2c1c(=O)n(CCc1ccccc1)c(=O)n2C` [1(97), 1-(2-phenyl-ethyl)-3-methyl-7-(3-methyl-2-buten-1-yl)-8-(homopiperazin-1-yl)-xanthine] as the compound, how does the pIC50 read?
Its pIC50 is 6.67.

With `C#CCOc1cccc(C(=O)Cn2c(=O)c3c(nc(N4CCCC(N)C4)n3CC=C(C)C)n(C)c2=O)c1` (stereo not shown) [2(85), 1-{2-oxo-2-[3-(2-propyn-1-yloxy)-phenyl]-ethyl}-3-methyl-7-(3-methyl-2-buten-1-yl)-8-(3-amino-piperidin-1-yl)-xanthine] as the compound, how does the pIC50 read?
Its pIC50 is 7.77.

With `CC(C)=CCn1c(N2CCCC(N)C2)nc2c1c(=O)n(C(C)C)c(=O)n2C` (stereo not shown) [1(19), 1-(2-propyl)-3-methyl-7-(3-methyl-2-buten-1-yl)-8-(3-amino-piperidin-1-yl)-xanthine] as the compound, how does the pIC50 read?
The pIC50 was 5.56.

With `CC(C)=CCn1c(N2CCCC(N)C2)nc2c1c(=O)n(CC(=O)c1cccc(OCC#N)c1)c(=O)n2C` (stereo not shown) [2(88), 1-[2-(3-cyanomethoxy-phenyl)-2-oxo-ethyl]-3-methyl-7-(3-methyl-2-buten-1-yl)-8-(3-amino-piperidin-1-yl)-xanthine] as the compound, how does the pIC50 read?
The pIC50 was 8.22.

With `CC(C)=CCn1c(N2CCCC(N)C2)nc2c1c(=O)n(C)c(=O)n2CC(=O)c1ccccc1` (stereo not shown) [2(56), 1-methyl-3-(2-phenyl-2-oxo-ethyl)-7-(3-methyl-2-buten-1-yl)-8-(3-amino-piperidin-1-yl)-xanthine] as the compound, how does the pIC50 read?
The pIC50 was 7.19.

With `CC(C)=CCn1c(N2CCCC(N)C2)nc2c1c(=O)n(CCc1ccccn1)c(=O)n2C` (stereo not shown) [1(60), 1-[2-(pyridin-2-yl)-ethyl]-3-methyl-7-(3-methyl-2-buten-1-yl)-8-(3-amino-piperidin-1-yl)-xanthine] as the compound, how does the pIC50 read?
The pIC50 was 7.24.

With `CC(C)=CCn1c(N(C)CCN)nc2c1c(=O)n(C)c(=O)n2C` [1(35), 1,3-dimethyl-7-(3-methyl-2-buten-1-yl)-8-[N-(2-aminoethyl)-methylamino]-xanthine] as the compound, how does the pIC50 read?
The pIC50 was 7.02.

With `Cn1c(=O)c2c(nc(N3CCCC(N)C3)n2Cc2ccccc2)n(CC(=O)O)c1=O` (stereo not shown) [Example 6, 1-methyl-3-carboxymethyl-7-benzyl-8-(3-amino-piperidin-1-yl)-xanthine] as the compound, how does the pIC50 read?
Its pIC50 is 7.26.

same assay, conditions: read-out: DPP IV inhibition IC50

With `CC(C)=CCn1c(N(C)CC(N)C(=O)N(C)C)nc2c1c(=O)n(C)c(=O)n2C` (stereo not shown) [2(131), 1,3-dimethyl-7-(3-methyl-2-buten-1-yl)-8-[N-(2-amino-3-dimethylamino-3-oxo-propyl)-N-methyl-amino]-xanthine×trifluoroacetic acid] as the compound, how does the pIC50 read?
Its pIC50 is 6.90.

system: rats; experiment: Tolerability after oral administration in rats; type: in vivo; settings: oral administration of 30 mg/kg

For `Cn1c(=O)c2c(nc(N3CCCC(N)C3)n2Cc2ccccc2)n(C)c1=O` (stereo not shown) [Example 1(2), 1,3-dimethyl-7-benzyl-8-(3-amino-piperidin-1-yl)-xanthine], which “toxic side effects / tolerability” value is on record?
The value was “no toxic side effects could be detected”.

system: not given; experiment: not given; settings: not given

With `CC(C)=CCn1c(N2CCC[C@H](N)C2)nc2c1c(=O)n(CCc1cccc(O)c1)c(=O)n2C` [2(22), 1-[2-(3-hydroxy-phenyl)-ethyl]-3-methyl-7-(3-methyl-2-buten-1-yl)-8-((S)-3-amino-piperidin-1-yl)-xanthine] as the compound, how does the melting point read?
The melting point was 168 to 170 °C.

Which melting point does the source give for `CC(C)=CCn1c(N2CCCC(N)C2)nc2c1c(=O)n(CCc1ccccn1)c(=O)n2C` (stereo not shown) [1(60), 1-[2-(pyridin-2-yl)-ethyl]-3-methyl-7-(3-methyl-2-buten-1-yl)-8-(3-amino-piperidin-1-yl)-xanthine] here?
Its melting point is 117 to 120 °C.

With `CC(C)=CCn1c(N2CCCC(N)C2)nc2c1c(=O)n(CCc1ccc(Cl)cc1Cl)c(=O)n2C` (stereo not shown) [Example 1(37), 1-[2-(2,4-dichloro-phenyl)-ethyl]-3-methyl-7-(3-methyl-2-buten-1-yl)-8-(3-amino-piperidin-1-yl)-xanthine] as the compound, how does the melting point read?
The melting point was 130 to 132 °C.

Which melting point does the source give for `Cn1c(=O)c2c(nc(N3CCCC(N)C3)n2Cc2ccccc2)n(CC(=O)O)c1=O` (stereo not shown) [Example 6, 1-methyl-3-carboxymethyl-7-benzyl-8-(3-amino-piperidin-1-yl)-xanthine] here?
Its melting point is 212 to 215 °C.
